Results reported in patent US4232008A, “Tetrapeptides and methods” (Ortho Pharmaceutical Corporation, priority 1978, dated 1980).
Square brackets hold non-standard residues; d marks the D form. Ends that are not written are not given here. Peptide text beside a SMILES is read from it. Glx = not defined here; Sar = CNCC(=O)O

Key:
[1] = test system: Th-1+ T-lymphocytes and Bu-1+ B-lymphocytes (differentiation of inducible bone marrow cells); test: chicken induction assay; assay type: cell-based; details: for biological activity: induction of differentiation of Th-1+ T and Bu-1+ B lymphocytes, compared with ubiquitin: chicken bone marrow cells, cytotoxicity index readout; for concentration at which activity was observed: chicken induction assay
From the text: To determine the activity and characteristics of the tetrapeptide produced in Example I, the following chicken induction assay was employed. This assay is described in greater detail in Brand, et. al., Science, 193 319-321 (July 23, 1976) and references contained therein.
Bone marrow from newly-hatched chickens was selected as a source of inducible cells because it lacks an appreciable number of Bu-1^+ or Th-1^+ cells. Pooled cells from femur and tibiotarsus of five newly-hatched chicks of strains SC (Hy-Line) were fractionated by ultracentrifugation on a five-layer discontinuous bovine serum albumin (BSA) gradient. Cells from the two lighter layers were combined, washed, and suspended for incubation at a concentration of 5×10^6 cells per milliliter with the appropriate concentration of test polypeptide in RPMI 1630 medium supplemented with 15 mM hepes, 5 percent γ-globulin-free fetal calf serum, deoxyribonuclease (14 to 18 unit/ml), heparin (5 unit/ml), penicillin (100 unit/ml), and streptomycin (100 μg/ml). Controls were incubated with BSA (1 μg/ml) or medium alone. After incubation, the cells were tested in the cytotoxicity assay using chicken Cl and guinea pig C2 to C9 complement fractions as described in the reference article. The proportion of Bu-1^+ or Th-1^+ cells in each layer was calculated as a cytotoxicity index, 100 (a-b)/a, where a and b are the percentages of viable cells in the complement control and test preparation, respectively. The percentage of cells induced was obtained by subtracting the mean values in the control incubations without inducing agents (usually 1 to 3 percent) from those of the test inductions.
This high dose of ubiquitin inactivates the ubiquitin receptors and thus prevents the induction of cells by any agent which acts through these receptors.

[2] = test system: cytotoxic lymphocyte precursors (CLP); test: microculture limiting dilution assay of cytotoxic lymphocyte precursor frequencies after injection of the drug; assay type: in vivo, mice (C57 BL/6J); details: in vitro assay of spleen cells after administration
Method: To further illustrate the utility of the subject polypeptides, this example describes a microculture assay for estimating the frequencies of the cytotoxic lymphocytes produced upon stimulation by allogenic antigens. The frequencies of cytotoxic precursors between control animals and animals injected with various concentrations of the drug were compared by a limiting dilution assay.
The test animals (C57 BL/6J) were injected (i.v. or i.p.) with various concentrations of H--SAR--LYS--SAR--GLN--NH2 (the drug; identification no. G040) in 0.2 ml volume 24 hours before they were sacrificed for the experiments.
Cell suspensions from spleens of C57 BL/6J mice or DBA/2J mice were prepared by mincing the organ and pressing them through a wire mesh (60 gauge) with the plunger of a 5 c.c. syringe into a falcon petri dish (falcon 3002, 15×60 mm). The cell suspensions were allowed to stand at room temperature for 10 minutes to let the big chunks of tissue settle. The cell suspensions were then transferred to 15 ml Corning centrifuge tubes (Corning 25310) and spun for 10 minutes at 1500 RPM in the Beckmen TJ-6 centrifuge. […] After the third wash, the responder (C57 BL/6J) cells were resuspended in culture medium and counted in the Coulter counter. […] The DBA cells were then resuspended in the culture medium and counted in the Coulter counter. […]

T cells and B cells = details: applicant's published investigation; cited from earlier work
T cells = details: E rosette assay, Bach articles; cited from earlier work

Row | Compound | biological activity: induction of differentiation of Th-1+ T and Bu-1+ B lymphocytes, compared with ubiquitin [1] | other results
1 | C[C@H](N)C(=O)N[C@@H](CCCCN)C(=O)N[C@@H](CO)C(=O)N[C@@H](CCC(N)=O)C(=O)O [Example I, H--ALA--LYS--SER--GLN--OH] (H-AKSQ-OH) | biological activity similar to that of ubiquitin | concentration at which activity was observed [1]: ng/ml concentrations
2 | C[C@@H](N)C(=O)N[C@@H](CCCCN)C(=O)N[C@H](C)C(=O)N[C@@H](CCC(N)=O)C(N)=O [H--D--ALA--LYS--D--ALA--GLN--NH2] (H-[dA]K[dA]Q-NH2) | biological activity similar to that of ubiquitin | 
3 | CNCC(=O)N[C@@H](C)C(=O)N[C@@H](CCCCN)C(=O)N[C@@H](CO)C(=O)N[C@@H](CCC(N)=O)C(=O)O [H--SAR--ALA--LYS--SER--GLN--OH] (H-[Sar]AKSQ-OH) | biological activity similar to that of ubiquitin | 
4 | CNCC(=O)N[C@@H](CCCCN)C(=O)N[C@H](C)C(=O)N[C@@H](CCC(N)=O)C(N)=O [H--SAR--LYS--D--ALA--GLN--NH2] (H-[Sar]K[dA]Q-NH2) | biological activity similar to that of ubiquitin | 
5 | CNCC(=O)N[C@@H](CCCCN)C(=O)N(C)CC(=O)N[C@@H](CCC(N)=O)C(N)=O [H--SAR--LYS--SAR--GLN--NH2] (H-[Sar]K[Sar]Q-NH2) | biological activity similar to that of ubiquitin | concentration at which activity was observed [1]: ≥ 0.1 pg/mL; effect on in vivo production of cytotoxic lymphocyte precursors upon stimulation by allogenic antigens [2]: promoted the production of cytotoxic lymphocyte precursors
6 | GLX--ALA--LYS--SER--GLN--GLY--GLY--SER--ASN (Glx-AKSQGGSN; reading uncertain; also: N-terminal Glx: Gln or pyroglutamic acid, printed as GLX--ALA--LYS--SER--GLN--GLY--GLY--SER--ASN) [FTS, nonapeptide isolated from porcine serum by Bach; GLX is glutamine or pyroglutamic acid] |  | differentiation of T cells and B cells (T cells and B cells): differentiated both T cells and B cells; differentiation of T cells versus B cells (T cells): selectively differentiated T cells (and not B cells)
7 | QAKSQ [H--GLN--ALA--LYS--SER--GLN--OH] | biological activity similar to that of ubiquitin | 
8 | QAKSQGGSN [H--GLN--ALA--LYS--SER--GLN--GLY--GLY--SER--ASN--OH, reference compound] | biological activity similar to that of ubiquitin | 
